We go through five molecules from PubChem BioAssay (NCI).

Test in all cases: growth of human tumour cells (NCI), 48 h
The test system of assay [1] is NCI-H23 lung.
The subject of assay [2] is COLO 205 colon.
For assay [3], the system named is TK-10 renal.
Assay [4] has as its system SF-539 CNS.
Assay [5] deals with MDA-MB-231 breast.
The subject of assay [6] is CCRF-CEM leukemia.
The test system of assay [7] is DU-145 prostate.
Assay [8] deals with MALME-3M melanoma.
For assay [9], the system named is SW-620 colon.
Assay [10] relates to SK-MEL-28 melanoma.

Molecules are shown by their SMILES.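 Grown in 96-well plates, cells were treated for 48 hours with each compound at five concentrations. Insufficient inhibition: endpoint recorded as highest concentration tested. GI50 marks 50% less growth. TGI: concentration producing complete growth inhibition.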

On to `COc1cc2cc(Oc3ccc(NC(=O)Nc4cc(C(F)(F)F)cc(C(F)(F)F)c4)cc3)c(C)nc2cc1OCCN1CCCCC1`, for which the GI50 in [1] is 1.75 µM; in assay [2] it was 1.89 µM; in [3] it was 2.06 µM; in assay [4] it was 1.65 µM; in [5], 1.52 µM; in [6], 2.11 µM. Further, the GI50 in assay [7] was 1.71 µM; in [8], 1.59 µM; in assay [9], 1.79 µM; in assay [10], 1.66 µM. Moreover, the TGI in assay [1] amounted to 3.32 µM; in [2], 3.62 µM; in [3] it was 3.71 µM; in assay [4] it was 3.03 µM; in assay [5], 2.99 µM; in [6] it was 4.71 µM. Further, the TGI in assay [7] was 3.08 µM; in assay [8], 3.02 µM; in assay [9] it was 3.27 µM; in assay [10] it was 3.07 µM.

As for `O=C(N/N=C\c1cc(Br)cc(Br)c1O)N/N=C/c1cc(Br)cc(Br)c1O`, the GI50 in assay [1] is 6.21 µM; in [2], 3.92 µM; in [3], 10.6 µM; in [4], 1.73 µM; in assay [5] it was 4.18 µM; in [6] it was 0.534 µM. The GI50 in assay [7] is 4.63 µM; in assay [8] it was 11.5 µM; in [9], 4.52 µM; in [10], 2.79 µM. Besides, the TGI is 23.5 µM in assay [1]; 14.6 µM in assay [2]; 26.2 µM in assay [3]; 11 µM in [4]; 17.5 µM in assay [5]; 4.48 µM in [6]. In addition, the TGI in assay [7] is 15.5 µM; in assay [8], 31.3 µM; in [9] it was 19.6 µM; in assay [10] it was 16.1 µM.

`S=C1NC2=C(CCOc3c2ccc2ccccc32)C(c2ccc(Cl)cc2)N1` (stereo not given): the GI50 in [1] is 18.2 µM; in [2] it was 24.5 µM; in assay [3] it was 35.4 µM; in [4] it was 20.8 µM; in assay [5], 10.6 µM; in assay [6] it was 30.6 µM. For the same molecule, the GI50 in assay [7] was 27.9 µM; in assay [8], 23.8 µM; in [9], 43.7 µM; in [10] it was 41.1 µM. In addition, the TGI was 92 µM in [1]; > 100 µM in [2]; > 100 µM in assay [3]; 56.9 µM in [4]; 67.6 µM in assay [5]; > 100 µM in assay [6]. Besides, the TGI in [7] was > 100 µM; in assay [8], 73.8 µM; in assay [9], > 100 µM; in assay [10] it was > 100 µM.

Regarding `CC[C@@]1(O)C(=O)N(CCN(C)C)Cc2c1cc1n(c2=O)Cc2cc3ccccc3nc2-1`, the GI50 was 8.35 µM in assay [1]; > 91.6 µM in [2]; > 100 µM in assay [3]; 3.77 µM in assay [4]; > 100 µM in assay [5]; 4.74 µM in assay [6]. The GI50 is 4.64 µM in assay [7], > 100 µM in assay [8], 34.6 µM in assay [9] and 34.7 µM in assay [10]. In addition, the TGI in assay [1] was > 100 µM; in assay [2] it was > 100 µM; in assay [3], > 100 µM; in assay [4], 13.1 µM; in assay [5], > 100 µM; in assay [6], > 100 µM. Also, the TGI in assay [7] is > 100 µM; in assay [8], > 100 µM; in [9] it was > 100 µM; in assay [10], > 92.8 µM.

Take `O=C(CN1CCN(c2cc3c(cc2F)c(=O)c(C(=O)O)cn3C2CC2)CC1)Nc1ccc(C(=O)/C=C/c2ccccc2)cc1`: the GI50 in assay [1] is 2.48 µM; in assay [2] it was 36.3 µM; in [3], 4.19 µM; in assay [4], 3.6 µM; in [5], 1.84 µM; in [6], 4.09 µM. Moreover, the GI50 in assay [7] is 3.74 µM; in assay [8], 2.89 µM; in [9] it was 3.8 µM; in [10], 18.8 µM. Also, the TGI in assay [1] is 14.3 µM; in assay [2], > 100 µM; in [3], > 100 µM; in assay [4], > 100 µM; in assay [5], 5.13 µM; in assay [6], > 100 µM. The TGI was > 100 µM in assay [7], 8.87 µM in assay [8], > 100 µM in [9] and > 100 µM in assay [10].
